Patent US5658905A, “Use of triazine compounds as anxiolytics” (priority 1993, dated 1997)
Structures can show the parent of a compound that is named as a salt. Where two headings read alike, the source gives them in different places.

Tests used:
[1] = reported; models not named; cited from earlier work
[2] = Vogel conflict (punished drinking) model of anxiety
[3] = isethionate salt, EP-A-0 247 892, cited from earlier work
[4] = tested on: mice; test: Orientative acute oral toxicity (LD50) in mice; type: in vivo; conditions: 50% survive 10 days after administration
From the text: (§1) The present compounds are non-toxic at prophylactically and therapeutically effective doses. […] These are the dose levels at which 50% of the animals survive 10 days after administration of compound A.

[5] = tested on: voltage-sensitive sodium channels; conditions: Lang et al 1993; Lees and Leach 1993; cited from earlier work
[6] = Orientative acute oral toxicity (LD50) in rats; conditions: rat, in vivo, 50% survive 10 days after administration
From the text: as §1

[7] = tested on: release of excitatory amino acids, principally glutamate; conditions: at anticonvulsant brain concentrations; Leach et al 1986; Zhu and McGee 1990; cited from earlier work
[8] = Rattus norvegicus, po, 1 h, read-out: number of licks, percentage of vehicle control responding
[9] = dose-response across tested doses, significance p<0.05, Mann-Whitney U-test
[10] = Rattus norvegicus, po, 1 h, read-out: number of licks, percentage of vehicle control responding, 20 mg/kg p.o., one hour before test, vehicle=100% (Table 3)
[11] = Rattus norvegicus, po, 1 h, read-out: number of licks, percentage of vehicle control responding, 40 mg/kg p.o., one hour before test, vehicle=100% (Table 3)
[12] = Rattus norvegicus, po, 1 h, read-out: number of licks, percentage of vehicle control responding, 80 mg/kg p.o., one hour before test, vehicle=100% (Table 3)
[13] = Rattus norvegicus, 1 h, read-out: number of licks, percentage of vehicle control responding
[14] = Rattus norvegicus, sc, 20 min, read-out: number of licks, percentage of vehicle control responding
[15] = Rattus norvegicus, po, 1 h, read-out: number of licks, percentage of vehicle control responding, 160 mg/kg p.o., one hour before test, vehicle=100% (Table 3)

Structure (SMILES): CN1[C@@H]2CC[C@H]1C[C@@H](OC(=O)c1cc(Cl)cc(Cl)c1)C2 [Bemesetron]
- anxiolytic effects in other animal models [1]: reported to exhibit anxiolytic effects in other animal models
- response vs control in vivo at 0.0001 mg/kg [2, 8]: 89%
- response vs control in vivo at 0.001 mg/kg [2, 8]: 129%
- response vs control in vivo at 0.01 mg/kg [2, 8]: 156%
- response vs control in vivo at 0.1 mg/kg [2, 8]: 116%
- effect on punished responding (in words) [2, 9]: lack of any significant anxiolytic effect

Structure (SMILES): NC(=O)N1c2ccccc2C=Cc2ccccc21 [Carbamazepine]
- effect on punished responding (in words) ([2]; 5.0 mg/kg p.o.): no effect
- effect on punished responding (in words) ([2]; 20 mg/kg p.o.): non-significant increase in PR
- response vs control in vivo at 5 mg/kg ([2]; Rattus norvegicus, po, 1 h, read-out: number of licks, percentage of vehicle control responding, 5.0 mg/kg p.o., one hour before test, vehicle=100% (Table 2)): 87%
- response vs control in vivo at 10 mg/kg ([2]; Rattus norvegicus, po, 1 h, read-out: number of licks, percentage of vehicle control responding, 10 mg/kg p.o., one hour before test, vehicle=100% (Table 3)): 154%
- response vs control in vivo at 20 mg/kg ([2]; Rattus norvegicus, po, 1 h, read-out: number of licks, percentage of vehicle control responding, 20.0 mg/kg p.o., one hour before test, vehicle=100% (Table 2)): 161%
- response vs control in vivo at 20 mg/kg [2, 10]: 206%
- response vs control in vivo at 40 mg/kg [2, 11]: 219%
- response vs control in vivo at 80 mg/kg [2, 12]: 309%
- effect on punished responding (in words) [2, 9]: dose-related, significant increase in punished responding

Structure (SMILES): Nc1nnc(-c2cccc(Cl)c2Cl)c(N)n1 [Compound A isethionate, 3,5-diamino-6-(2,3-dichlorophenyl)-1,2,4-triazine isethionate]
- solubility [3]: good solubility
- solubility ([3]; listed as salt with isethionic acid): particularly good solubility
- other behavioural changes ([2]; 10, 20, 40 mg/kg base equivalent p.o.): no other behavioural changes were observed
- response vs control in vivo at 10 mg/kg [2, 13]: 92%
- response vs control in vivo at 20 mg/kg [2, 13]: 165%
- response vs control in vivo at 40 mg/kg [2, 13]: 208%
- effect on punished responding (in words) [2, 9]: dose-related increase in punished responding at 20 and 40 mg/kg, that at the latter dose being significant

Structure (SMILES): Nc1nnc(-c2cccc(Cl)c2Cl)c(N)n1 [Compound A, 3,5-Diamino-6-(2,3-dichlorophenyl)-1,2,4-triazine]
- acute oral toxicity (LD50) [4]: 250 mg/kg
- block of voltage-sensitive sodium channels [5]: use-dependent block of voltage-sensitive sodium channels
- LD50 at 240 h [6]: 640 mg/kg
- inhibition of release of excitatory amino acids, principally glutamate [7]: inhibit the release of excitatory. amino acids, principally glutamate

Structure (SMILES): CN1C(=O)CN=C(c2ccccc2)c2cc(Cl)ccc21 [Diazepam, 7-chloro-1,3-dihydro-1-methyl-5-phenyl-2H-1,4-benzodiazepin-2-one]
- ataxia ([2]; 1.0 mg/kg s.c.): accompanied by ataxia
- response vs control in vivo at 0.5 mg/kg [2, 14]: 162%
- response vs control in vivo at 1 mg/kg [2, 14]: 296%
- effect on punished responding (in words) [2, 9]: dose-related increase in punished responding (PR) at 0.5 and 1.0 mg/kg. This effect was large and significant

Structure (SMILES): CCC1(C)CC(=O)NC1=O (stereo not drawn) [Ethosuximide]
- response vs control in vivo at 40 mg/kg [2, 11]: 64%
- response vs control in vivo at 80 mg/kg [2, 12]: 133%
- response vs control in vivo at 160 mg/kg [2, 15]: 61%
- response vs control in vivo at 320 mg/kg ([2]; Rattus norvegicus, po, 1 h, read-out: number of licks, percentage of vehicle control responding, 320 mg/kg p.o., one hour before test, vehicle=100% (Table 3)): 96%

Structure (SMILES): Cc1nccn1CC1CCc2c(c3ccccc3n2C)C1=O (stereo not drawn) [Ondansetron hydrochloride]
- anxiolytic effects in other animal models [1]: reported to exhibit anxiolytic effects in other animal models
- response vs control in vivo at 0.0001 mg/kg ([2]; Rattus norvegicus, po, 1 h, read-out: number of licks, percentage of vehicle control responding, 0.1 μg/kg p.o., one hour before test, vehicle=100% (Table 3)): 68%
- response vs control in vivo at 0.001 mg/kg ([2]; Rattus norvegicus, po, 1 h, read-out: number of licks, percentage of vehicle control responding, 1.0 μg/kg p.o., one hour before test, vehicle=100% (Table 3)): 80%
- response vs control in vivo at 0.01 mg/kg ([2]; Rattus norvegicus, po, 1 h, read-out: number of licks, percentage of vehicle control responding, 10 μg/kg p.o., one hour before test, vehicle=100% (Table 3)): 70%
- response vs control in vivo at 0.1 mg/kg ([2]; Rattus norvegicus, po, 1 h, read-out: number of licks, percentage of vehicle control responding, 100 μg/kg p.o., one hour before test, vehicle=100% (Table 3)): 87%
- effect on punished responding (in words) [2, 9]: lack of any significant anxiolytic effect

Structure (SMILES): O=C1NC(=O)C(c2ccccc2)(c2ccccc2)N1 [Phenytoin sodium]
- effect on punished responding (in words) ([2]; 10 or 40 mg/kg p.o.): no effect on PR
- response vs control in vivo at 10 mg/kg ([2]; Rattus norvegicus, po, 1 h, read-out: number of licks, percentage of vehicle control responding, 10.0 mg/kg p.o. (parent acid equivalent), one hour before test, vehicle=100% (Table 2)): 121%
- response vs control in vivo at 20 mg/kg [2, 10]: 101%
- response vs control in vivo at 40 mg/kg ([2]; Rattus norvegicus, po, 1 h, read-out: number of licks, percentage of vehicle control responding, 40.0 mg/kg p.o. (parent acid equivalent), one hour before test, vehicle=100% (Table 2)): 114%
- response vs control in vivo at 40 mg/kg [2, 11]: 135%
- response vs control in vivo at 80 mg/kg [2, 12]: 220%
- response vs control in vivo at 160 mg/kg [2, 15]: 173%

Structure (SMILES): CCCC(CCC)C(=O)O [Sodium valproate]
- response vs control in vivo at 40 mg/kg [2, 8]: 79%
- response vs control in vivo at 80 mg/kg [2, 8]: 108%
- response vs control in vivo at 160 mg/kg [2, 8]: 151%
- response vs control in vivo at 320 mg/kg [2, 8]: 261%
